In patent US11814367B2, “Inhibitors of glycogen synthase 1 (GYS1) and methods of use thereof” (Maze Therapeutics, Inc., priority 2021, dated 2023):

Tests used:
[1] = target: hGYS1 enzyme (recombinant hGYS1/GN1 protein) (Homo sapiens (Human), UniProt P13807); assay: GYS1 coupled enzyme assay (PK/LDH); assay type: biochemical; conditions: hGYS1/GN1 50 nM, UDP-Glucose 0.8 mM, G6P 1 mM; geometric mean of at least 2 runs
[2] = tested on: hGYS1 enzyme / glycogen synthesis in HeLa cells; assay: GYS1 cell based assay (glycogen synthesis, Glucose-glo); set-up: species or system human; conditions: 24 h incubation, 20 mM glucose, geometric mean of at least 2 runs
From the text: The GYS1 cell based assay is a bioluminescent assay that quantifies the glucose resulting from glycogen digestion; the quantified glucose is an indirect measure of GYS1 glycogen synthesis. Newly synthesized glycogen is digested using Glucoamylase; the resulting glucose is quantified by using the Glucose-glo assay kit from Promega. Glucose-glo works by coupling glucose oxidation and NADH production with a bioluminescent system that is activated with NADH. Glucose is oxidized by Glucose dehydrogenase and the reaction reduces NAD+ to NADH; NADH activates Reductase which reduces a pro-luciferin Reductase Substrate to luciferin. Luciferin is detected in a luciferase reaction using Ultra-Glo rLuciferase and ATP, and the luminesce produced is proportional to the glucose in the sample. The luminescence is measured as a single point read in a plate reader.
Compounds that inhibit the hGYS1 enzyme and, subsequently, the glycogen synthesis in cells, were tested using assay ready plates (white, clear bottom 384 well plates) in a final DMSO reaction volume of 1% DMSO. Compounds in the assay ready plates were mixed with media with no additives, except for 20 mM glucose prior to cell addition. HeLa cells were starved in media with no additives, except for 1× Glutamax for 24 h. Starved HeLa cells were plated, in a 1:1 ratio to the media in the assay ready plate and incubated for 24 h at 37° C. and 5% C02. Cells were washed in 1×PBS buffer and lysed in lysis buffer containing 50% 1×PBS and 25% 0.3 N HCl of the final volume in the well or reaction volume; cells were incubated with lysis buffer for 10 minutes and quenched with the remaining 25% of the reaction volume that consisted of 450 mM Tris pH 8.0. Lysates were mixed in a 1:1 ratio with Glucoamylase in 100 mM Sodium Acetate buffer, pH 5.3; the mixture was incubated for 1 h at 37° C. The digested lysate was mixed in a 1:1 ratio with Glucose-glo detection mixture as per vendor recommendations (Luciferase detection buffer, Reductase, Reductase substrate, Glucose dehydrogenase, and NAD) in read-out plates (solid white 384-well plates) and incubated for 1 h at RT. The plates were read using a plate reader with luminescence capabilities. Each compound concentration Relative Luminescence Unit (RLU) was averaged and normalized to the average RLU of the positive and negative controls to obtain a percentage inhibition. The normalized data vs. concentration was plotted; to determine the half-maximal concentration (IC50), the Levenberg-Marquardt algorithm was used to fit a Hill equation to the dose response data.
The results are shown in Table 3 below, which reports the IC50 of each compound. Unless otherwise specified, IC50 values are reported as the geometric mean of at least 2 assay runs on separate days. As shown in the table below, the compounds of the present invention are potent inhibitors of human GYS1. Unless otherwise specified, IC50 values are reported as the geometric mean of at least two assay runs on separate days. Each run represents the average of a technical replicate, where each compound was assayed twice in the same plate. A superscript “#” symbol in Table 3 indicates results from a single assay run.

Chain of hGYS1 enzyme (recombinant hGYS1/GN1 protein) (P13807 whole entry): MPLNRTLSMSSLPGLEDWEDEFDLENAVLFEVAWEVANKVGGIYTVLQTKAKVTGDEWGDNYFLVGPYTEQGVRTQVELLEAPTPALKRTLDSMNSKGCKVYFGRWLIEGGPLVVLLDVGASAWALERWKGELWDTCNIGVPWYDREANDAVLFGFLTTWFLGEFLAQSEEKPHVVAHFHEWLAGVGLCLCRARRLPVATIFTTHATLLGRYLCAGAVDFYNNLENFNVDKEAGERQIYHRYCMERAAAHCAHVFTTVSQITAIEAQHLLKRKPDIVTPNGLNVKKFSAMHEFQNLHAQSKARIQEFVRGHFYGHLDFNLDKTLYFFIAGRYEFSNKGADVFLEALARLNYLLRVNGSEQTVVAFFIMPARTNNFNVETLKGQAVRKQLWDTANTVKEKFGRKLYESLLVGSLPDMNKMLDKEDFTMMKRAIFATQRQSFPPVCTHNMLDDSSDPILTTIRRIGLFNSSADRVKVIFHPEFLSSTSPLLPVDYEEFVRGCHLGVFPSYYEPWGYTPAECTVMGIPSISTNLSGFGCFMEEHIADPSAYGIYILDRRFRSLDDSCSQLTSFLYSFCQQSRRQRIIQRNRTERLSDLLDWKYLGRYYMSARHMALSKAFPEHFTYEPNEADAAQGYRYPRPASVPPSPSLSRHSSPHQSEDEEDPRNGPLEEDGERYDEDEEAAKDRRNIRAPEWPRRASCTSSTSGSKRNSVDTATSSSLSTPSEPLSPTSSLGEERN
Chain of hGYS1 enzyme (recombinant hGYS1/GN1 protein) (P46976 whole entry partner): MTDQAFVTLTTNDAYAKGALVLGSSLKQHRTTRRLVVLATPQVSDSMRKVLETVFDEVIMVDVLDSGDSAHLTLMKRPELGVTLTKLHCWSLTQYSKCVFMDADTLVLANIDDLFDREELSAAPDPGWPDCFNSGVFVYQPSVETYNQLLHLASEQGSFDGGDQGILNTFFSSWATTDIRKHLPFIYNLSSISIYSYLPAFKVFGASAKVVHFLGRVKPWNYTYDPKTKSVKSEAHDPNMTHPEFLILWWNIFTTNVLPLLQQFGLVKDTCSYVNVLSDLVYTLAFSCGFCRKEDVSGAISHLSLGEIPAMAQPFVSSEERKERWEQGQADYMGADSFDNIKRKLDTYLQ

| IC50 [1] [µM] | IC50 ([2]; Homo sapiens, HeLa, 24 h) [µM] | IC50 [2] [µM] | Structure (SMILES) | IC50 ([2]; Homo sapiens) [µM] |
| --- | --- | --- | --- | --- |
| 0.017 | 0.34 | – | CCn1cc(CC(=O)N2C[C@H](F)C[C@H]2C(=O)N[C@@H](c2ccccc2)c2ccc(C3CC3)c(F)n2)cc(C)c1=O [Compound 739, (2S,4R)-N-[(S)-(5-cyclopropyl-6-fluoropyridin-2-yl)(phenyl)methyl]-1-[2-(1-ethyl-5-methyl-6-oxo-1,6-dihydropyridin-3-yl)acetyl]-4-fluoropyrrolidine-2-carboxamide] | – |
| 0.464 | 4.3 | – | CC(C)c1ccc([C@@H](NC(=O)[C@@H]2C[C@@H](F)CN2C(=O)Cc2noc(=O)n2C)c2ccccc2)nc1 [Compound 267, (2S,4R)-4-fluoro-1-[2-(4-methyl-5-oxo-4,5-dihydro-1,2,4-oxadiazol-3-yl)acetyl]-N-[(S)-phenyl[5-(propan-2-yl)pyridin-2-yl]methyl]pyrrolidine-2-carboxamide] | – |
| 0.103 | 2.71 | – | CC(=O)N1C[C@H](F)C[C@H]1C(=O)NC(c1cccc(-c2cc(C)n[nH]2)c1)c1ccc(C(C)C)c(F)n1 (single isomer, unassigned) [Compound 696, (2S,4R)-1-acetyl-4-fluoro-N-[(S) or (R)-[6-fluoro-5-(propan-2-yl)pyridin-2-yl][3-(3-methyl-1H-pyrazol-5-yl)phenyl]methyl] pyrrolidine-2-carboxamide] | – |
| 1.62 | 29.5 | – | Cc1ncccc1C(NC(=O)[C@@H]1C[C@@H](F)CN1C(=O)Cc1cnn[nH]1)c1ccc(C2(C)CC2)c(F)c1 (single isomer, unassigned) [Compound 627, (2S,4R)-4-fluoro-N-[(R) or (S)-[3-fluoro-4-(1-methylcyclopropyl)phenyl](2-methylpyridin-3-yl)methyl]-1-[2-(1H-1,2,3-triazol-5-yl)acetyl]pyrrolidine-2-carboxamide] | – |
| 1.3 | 10.8 | – | CNC(=O)NCc1cccc([C@H](NC(=O)[C@@H]2C[C@@H](F)CN2C(=O)Cc2cnn[nH]2)c2ccc(C(C)C)c(F)n2)c1 [Compound 656, (2S,4R)-4-fluoro-N-[(S)-[6-fluoro-5-(propan-2-yl)pyridin-2-yl](3-{[(methylcarbamoyl)amino]methyl}phenyl)methyl]-1-[2-(1H-1,2,3-triazol-5-yl)acetyl]pyrrolidine-2-carboxamide] | – |
| 0.021 | 0.32 | – | CCn1ccnc(CC(=O)N2C[C@H](F)C[C@H]2C(=O)N[C@@H](c2ccccc2)c2ccc(C3CC3)c(F)n2)c1=O [Compound 753, (2S,4R)-N-[(S)-(5-cyclopropyl-6-fluoropyridin-2-yl)(phenyl)methyl]-1-[2-(4-ethyl-3-oxo-3,4-dihydropyrazin-2-yl)acetyl]-4-fluoropyrrolidine-2-carboxamide] | – |
| 0.408 | 5.79 | – | Cc1cc(C(NC(=O)[C@@H]2C[C@@H](F)CN2C(=O)Cc2cnn[nH]2)c2cccnc2N)ccc1C(C)C (single isomer, unassigned) [Compound 624, (2S,4R)-N-[(R) or (S)-(2-aminopyridin-3-yl)[3-methyl-4-(propan-2-yl)phenyl]methyl]-4-fluoro-1-[2-(1H-1,2,3-triazol-5-yl)acetyl]pyrrolidine-2-carboxamide] | – |
| 0.079 | 1.09 | – | O=C(N[C@@H](c1ccccc1)c1ccc(C2CC2)c(F)n1)[C@@H]1C[C@@H](F)CN1C(=O)Cc1cnn[nH]1 [Compound 721, (2S,4R)-N-[(S)-(5-cyclopropyl-6-fluoropyridin-2-yl)(phenyl)methyl]-4-fluoro-1-[2-(1H-1,2,3-triazol-5-yl)acetyl]pyrrolidine-2-carboxamide] | – |
| 1.2 | 21.6 | – | CC(C)c1ccc(C(NC(=O)[C@@H]2C[C@@H](F)CN2C(=O)Cc2cnn[nH]2)C2CC2)cc1F (single isomer, unassigned) [Compound 652, (2S,4R)-N-[(S) or (R)-cyclopropyl[3-fluoro-4-(propan-2-yl)phenyl]methyl]-4-fluoro-1-[2-(1H-1,2,3-triazol-5-yl)acetyl]pyrrolidine-2-carboxamide] | – |
| 0.029 | 0.4 | – | Cn1cc(C(F)F)c(CC(=O)N2C[C@H](F)C[C@H]2C(=O)N[C@@H](c2ccccc2)c2ccc(C3CC3)c(F)n2)n1 [Compound 757, (2S,4R)-N-[(S)-(5-cyclopropyl-6-fluoropyridin-2-yl)(phenyl)methyl]-1-{2-[4-(difluoromethyl)-1-methyl-1H-pyrazol-3-yl]acetyl}-4-fluoropyrrolidine-2-carboxamide] | – |
| 1.6 | – | > 30 | CC(C)c1ccc(C(NC(=O)[C@@H]2C[C@@H](F)CN2C(=O)Cc2cnn[nH]2)c2ccc3cn[nH]c3c2)nc1F (single isomer, unassigned) [Compound 633, (2S,4R)-4-fluoro-N-[(R) or (S)-[6-fluoro-5-(propan-2-yl)pyridin-2-yl](1H-indazol-6-yl)methyl]-1-[2-(1H-1,2,3-triazol-5-yl)acetyl]pyrrolidine-2-carboxamide] | – |
| 0.012 | 0.28 | – | CCN(CC)c1cnnn1CC(=O)N1C[C@H](F)C[C@H]1C(=O)N[C@@H](c1ccccc1)c1ccc(C(C)C)c(F)n1 [Compound 805, (2S,4R)-1-{2-[5-(diethylamino)-1H-1,2,3-triazol-1-yl]acetyl}-4-fluoro-N-[(S)-[6-fluoro-5-(propan-2-yl)pyridin-2-yl](phenyl)methyl] pyrrolidine-2-carboxamide] | – |
| 0.016 | 0.29 | – | CCn1cc(CC(=O)N2C[C@H](F)C[C@H]2C(=O)N[C@@H](c2ccccc2)c2ccc(C(C)C)c(F)n2)ncc1=O [Compound 797, (2S,4R)-1-[2-(4-ethyl-5-oxo-4,5-dihydropyrazin-2-yl)acetyl]-4-fluoro-N-[(S)-[6-fluoro-5-(propan-2-yl)pyridin-2-yl](phenyl)methyl] pyrrolidine-2-carboxamide] | – |
| 0.017 | 0.37 | – | O=C(N[C@@H](c1ccccc1)c1ccc(C2CC2)c(F)n1)[C@@H]1C[C@@H](F)CN1C(=O)Cn1nccc1C(F)(F)F [Compound 760, (2S,4R)-N-[(S)-(5-cyclopropyl-6-fluoropyridin-2-yl)(phenyl)methyl]-4-fluoro-1-{2-[5-(trifluoromethyl)-1H-pyrazol-1-yl]acetyl}pyrrolidine-2-carboxamide] | – |
| – | 0.38 | – | CC(C)c1ccc([C@@H](NC(=O)[C@@H]2C[C@@H](F)CN2C(=O)Cc2nc(C(F)(F)F)co2)c2ccccc2)nc1F [Compound 801, (2S,4R)-4-fluoro-N-[(S)-[6-fluoro-5-(propan-2-yl)pyridin-2-yl](phenyl)methyl]-1-{2-[4-(trifluoromethyl)-1,3-oxazol-2-yl]acetyl} pyrrolidine-2-carboxamide] | – |
| – | 0.21 | – | CC(C)c1ccc([C@@H](NC(=O)[C@@H]2C[C@@H](F)CN2C(=O)CNC(=O)N(C)C)c2ccccc2)cc1F [Compound 361, (2S,4R)-1-{2-[(dimethylcarbamoyl)amino]acetyl}-4-fluoro-N-[(S)-[3-fluoro-4-(propan-2-yl)phenyl](phenyl)methyl] pyrrolidine-2-carboxamide] | – |
| – | 0.18 | – | COc1nc(CC(=O)N2C[C@H](F)C[C@H]2C(=O)N[C@@H](c2ccccc2)c2ccc(C(C)C)c(F)n2)nn1C [Compound 800, (2S,4R)-4-fluoro-N-[(S)-[6-fluoro-5-(propan-2-yl)pyridin-2-yl](phenyl)methyl]-1-[2-(5-methoxy-1-methyl-1H-1,2,4-triazol-3-yl)acetyl] pyrrolidine-2-carboxamide] | – |

| Structure (SMILES) | IC50 [1] [µM] | IC50 ([2]; Homo sapiens, HeLa, 24 h) [µM] | IC50 [2] [µM] | IC50 ([2]; Homo sapiens) [µM] |
| --- | --- | --- | --- | --- |
| COC(=O)NCc1cccc([C@H](NC(=O)[C@@H]2C[C@@H](F)CN2C(=O)Cc2cnn[nH]2)c2ccc(C(C)C)c(F)n2)c1 [Compound 638, methyl (3-((S)-((2S,4R)-1-(2-(1H-1,2,3-triazol-5-yl)acetyl)-4-fluoropyrrolidine-2-carboxamido)(6-fluoro-5-isopropylpyridin-2-yl)methyl)benzyl)carbamate] | 0.399 | – | – | > 23.4 |
